# Source: ChEMBL document CHEMBL1158309, “Callyspongins A and B: Novel Polyacetylene Sulfates from the Marine Sponge Callyspongia truncata That Inhibit Fertilization of Starfish Gametes” (J Nat Prod, 1996)
# Active and inactive are the calls of the source. The rule behind the calls is not given here.
# What was measured:
# [1] = Antifertilization activity in Asterias amurensis sperm assessed as inhibition of sperm motility after 30 mins; assay type: functional, cell-based
# [2] = Antifertilization activity in Asterias amurensis egg assessed as inhibition of egg activation after 30 mins; assay type: functional
# [3] = Antifertilization activity in Asterias amurensis oocyte assessed as inhibition of 1-methyladenine-induced oocyte maturation at 100 uM; assay type: functional, cell-based
# [4] = Toxicity against Asterias amurensis embryos lysed in sea water at 100 uM; parameters: species or system Embryo; settings: buffer
# [5] = Toxicity against Asterias amurensis sperm in sea water at 100 uM; assay type: cell-based
# [6] = Toxicity against Asterias amurensis egg in sea water at 100 uM; settings: buffer
# [7] = Antifertilization activity in Asterias amurensis fertilized egg assessed as inhibition of blastula development at 100 uM; assay type: functional
MIC [1] [µM],MIC [2] [µM],Structure (SMILES),Activity [3],Activity [4],Activity [5],Activity [6],Activity [7]
13,> 200,C#C/C=C\CCCC/C=C\C#CC#CCCCC#CC#C[C@@H](O)CO [SIPHONODIOL],inactive,Toxic,Toxic,Toxic,–
50,6.3,C#C/C=C\CCCC/C=C\C#CC#CCCCC#CC#C[C@H](COS(=O)(=O)O)OS(=O)(=O)O,inactive,–,–,–,inactive
100,50,C#C/C=C\CCCC/C=C\C#CC#CCCCC#CC#C[C@@H](O)COS(=O)(=O)O,inactive,–,–,–,inactive
